In patent US7078225B2, “Method for enzymatically producing an optically active cyanohydrin” (Nippon Shokubai Co., Ltd., priority 2000, dated 2006):

Test system: (R)-hydroxynitrile lyase
Experiment: Effect of reaction inhibitor in the aldehyde on enzymatic synthesis of (R)-2-chloromandelonitrile (conversion by HPLC after five hours)
Format: biochemical, almond (Prunus amygdalus)
Conditions: 1 M aldehyde, 1.5 M prussic acid, immobilized enzyme 600 units, t-butyl methyl ether saturated with citrate buffer pH 5.5, five hours
Description: 2-chlorobenzaldehyde containing undetectable 2-chlorobenzoic acid (reaction inhibitor) was dissolved in t-butyl methyl ether saturated with 0.15 M citrate buffer (pH 5.5) to prepare a 1 M solution of 2-chlorobenzaldehyde. To this solution, 2-chlorobenzoic acid was added in different amounts to prepare aldehyde solutions of varying 2-chlorobenzoic acid contents.
Immobilized (R)-hydroxynitrile lyase (600 units) was introduced into 5 mil of each solution, and prussic acid was then added to reach 1.5 M, followed by synthesis of (R)-2-chloromandelonitrile. Five hours after initiation of the reaction, an aliquot of the reaction mixture was sampled to measure the conversion ratio of aldehyde by HPLC.

O=C(O)c1ccccc1Cl [2-chlorobenzoic acid]
inhibition of the enzyme reaction (0.5 wt % 2-chlorobenzoic acid added to 2-chlorobenzaldehyde): about 30%
inhibition of the enzyme reaction (1.1 wt % 2-chlorobenzoic acid added to 2-chlorobenzaldehyde): about 50%
